The values that follow come from patent publication US20050119301A1, “Treatment of restenosis” (priority 2001, published 2005).

One test relates to Erk. The test can be described thus: PDGF BB-induced MAP kinase activation in VSMC, immunoprecipitation analysis. Particulars: human VSMC. Type of test: cell-based. As to the method: (§1) To further examine the signalling pathway mediating the effect of this phytoestrogen in VSMC, the effect of Cpd. 7 on mitogen-activated protein (MAP) kinases (Erk, JUNK, p38) was determined by immunoprecipitation analysis and on early growth response genes (Egr-1, Sp-1) by Western blotting. […] 7 in a dose-dependent manner, while JUNK and p38 activity were not affected by either PDGF BB or Cpd. 7, though the cells strongly expressed both proteins as well as Erk. Egr-1 or Sp-1 proteins were not altered by either PDGF-BB or Cpd. 7.

In another test the test system is Sp-1. In words: Early growth response gene protein in VSMC, Western blotting. It is filed as cell-based. Particulars: human VSMC. As to the method: as §1
For another test, the system named is Egr-1. Described as above. It is filed as cell-based. Particulars: human VSMC. As to the method:
as §1

Test [1] concerns rat isolated aortic rings. In words: Protection against endothelium damage induced by oxidised LDL, acetylcholine dilatation (Protocol 3). As to the method:
Male Sprague-Dawley rats (250±50 g) were gassed with 80% CO2 and 20% O2 until killed. The thoracic aorta was excised and quickly placed in ice-cold Krebs modified solution composed of NaCl […], […] 4.7 mM, MgSO4 7H2O 1.17 mM, NaHCO3 25 mM, KH2PO4 1.18 mM, CaCl2 2.5 mM, glucose 11 mM and EDTA 0.03 mM. It was then trimmed of fat and connective tissue and cut into 2-3 mm wide rings. Each ring was mounted on two parallel stainless steel hooks in a single water-jacketed 3 ml organ bath containing modified Krebs solution maintained at 37° C. and bubbled with 95% O2 plus 5% CO2. The lower hook was attached to a movable support leg and the upper hook to an FTO3 force transducer (Grass Scientific Instruments, Mitutoyo, Japan) for isometric recordings. Changes in force were amplified (Quadbridge amplifier, Scientific Concepts Inc., Victoria, Australia) and recorded on a MacLab 8E data acquisition system (Adinstruments Pty Ltd., NSW, Australia) linked to an Apple computer (Apple Computer Inc, Cupertina, Calif.). Rings were set at an initial tension of 2 g and allowed to equilibrate for 30 minutes after which time they were re-set to 2 g tension before the commencement of each experimental protocol.
Full concentration response curves to phenylephrine were constructed from which the concentration giving a submaximal contraction of approximately 80% was selected (usually 0.3 μM). Tissues were then constricted with phenylephrine at the selected concentration and allowed to plateau. Full concentration dilatory curves were then constructed to acetylcholine. […]
Human plasma was obtained from the blood bank. […] The protein content of the final LDL fraction obtained was determined by the simplified protein assay method of Lowry. […]
Contractile responses are expressed in g tension (mean+standard error of the mean). Dilatory responses are expressed as a percentage of the contractile force generated by the pre-constricting agent used. […]

“Also recorded” adds a separate entry of the source.

Consider `Oc1ccc(C2COc3cc(O)ccc3C2O)cc1` (centres unmarked) [Cpd. 7], for which the “PDGF BB-induced Erk activation” value with Erk is “significantly inhibited by Cpd. 7 in a dose-dependent manner”. The Sp-1 protein entry with Sp-1 is given as “not altered”. For the same compound, the Egr-1 protein result with Egr-1 was “not altered”.

With `Oc1ccc(C2COc3cc(O)ccc3C2O)cc1` (centres unmarked) [Cpd. 8], the “potency of protective effect against ox-LDL relative to 17β-estradiol” value in test [1] was “at least 10 times”. Moreover, in test [1] (ox-LDL 0.3 mg protein/ml, β-estradiol 10 pg/ml, Cpd. 5 300 ng/ml, Cpd. 7 1 μg/ml, Cpd. 8 and 12 3 μg/ml), the “protective effect against ox-LDL inhibition of acetylcholine dilatation (in words)” value is “diminished the inhibitory effect of ox-LDL; also recorded: significantly protects against endothelium damage by oxidized LDL”.
